Experimental data: PMC5433425 (PeerJ, 2017)
Where “and” joins values, the source holds several entries; their conditions need not be identical. Equal values may be shown once.

Columns and labels:
[1] = test system: E. coli AG100tet; experiment: EtBr accumulation by real-time fluorometry; conditions: EtBr 2 µg/ml + inhibitor 80 µM
[2] = test system: E. coli AG100; experiment: Membrane permeability assay (Live/Dead BacLight); conditions: for BacLight Live/Dead fluorescence 485/20,528/20 / BacLight Live/Dead fluorescence 485/20,590/35: raw well reading
[3] = test system: E. coli AG100; experiment: Checkerboard synergy assay (MIC of antibiotics/EtBr with efflux inhibitor); type: cell-based, Escherichia coli; conditions: AG100
Method: The assays were performed in triplicate and the MIC value was given as result of at least two concordant values.

[4] = test system: E. coli AG100; experiment: Membrane potential assay (BacLight, DiOC2(3))
[5] = test system: E. coli AG100; experiment: EtBr accumulation by real-time fluorometry; conditions: EtBr 1 µg/ml + inhibitor 80 µM

In the case of `CCCOc1ccc(-c2cc(OCCN3CCNCC3)c3ccccc3n2)cc1` [PQQ4R, 4-(2-(piperazin-1-yl)ethoxy)-2-(4-propoxyphenyl) quinolone], the EtBr fluorescence ([1]; cycle 1) is reported as 9.875, the EtBr fluorescence ([1]; cycle 2) is reported as 10.6846 and the EtBr fluorescence ([1]; cycle 3) is reported as 11.6019. It also gave an EtBr fluorescence ([1]; cycle 4) of 12.4491, an EtBr fluorescence ([1]; cycle 5) of 13.6501 and an EtBr fluorescence ([1]; cycle 6) of 14.6495. For the same molecule, the EtBr fluorescence ([1]; cycle 7) was 15.6732, the EtBr fluorescence ([1]; cycle 8) was 16.6247 and the EtBr fluorescence ([1]; cycle 9) was 17.8761. The EtBr fluorescence ([1]; cycle 10) was 18.9066, the EtBr fluorescence ([1]; cycle 11) was 20.4282 and the EtBr fluorescence ([1]; cycle 12) was 21.7393. The EtBr fluorescence ([1]; cycle 13) was 23.4754, the EtBr fluorescence ([1]; cycle 14) was 25.1013 and the EtBr fluorescence ([1]; cycle 15) was 27.2614. For the same molecule, the EtBr fluorescence ([1]; cycle 16) was 29.2172, the EtBr fluorescence ([1]; cycle 17) was 32.322 and the EtBr fluorescence ([1]; cycle 18) was 34.6681. It also gave an EtBr fluorescence ([1]; cycle 19) of 38.0364, an EtBr fluorescence ([1]; cycle 20) of 40.8691 and an EtBr fluorescence ([1]; cycle 21) of 44.3636. For the same molecule, the EtBr fluorescence ([1]; cycle 22) was 47.9426, the EtBr fluorescence ([1]; cycle 23) was 51.4641 and the EtBr fluorescence ([1]; cycle 24) was 55.2307. The EtBr fluorescence ([1]; cycle 25) was 58.9315, the EtBr fluorescence ([1]; cycle 26) was 63.4348 and the EtBr fluorescence ([1]; cycle 27) was 67.7728. The EtBr fluorescence ([1]; cycle 28) was 71.5821, the EtBr fluorescence ([1]; cycle 29) was 76.2698 and the EtBr fluorescence ([1]; cycle 30) was 79.495. The “BacLight Live/Dead fluorescence 485/20,528/20” value ([2]; 80 uM) was 153 and 118, the “BacLight Live/Dead fluorescence 485/20,590/35” value ([2]; 80 uM) was 38 and 30 and the “BacLight Live/Dead fluorescence 485/20,528/20” value ([2]; 160 uM) was 278 and 253. For the same molecule, the “BacLight Live/Dead fluorescence 485/20,590/35” value ([2]; 160 uM) was 85 and 82, the “BacLight Live/Dead fluorescence 485/20,528/20” value ([2]; 320 uM) was 277 and 252 and the “BacLight Live/Dead fluorescence 485/20,590/35” value ([2]; 320 uM) was 87 and 78. The “BacLight Live/Dead fluorescence 485/20,528/20” value ([2]; 640 uM) was 160 and 178, the “BacLight Live/Dead fluorescence 485/20,590/35” value ([2]; 640 uM) was 79 and 82 and the “membrane permeability increase / membrane permeation” value ([2]; AG100, 80 µM) was 4%. For the same molecule, the “effect on cell membrane integrity” value ([2]; AG100, 80 µM (≈1/8 MIC), 1 h) was “did not alter”, the membrane permeation ([2]; AG100, 160 μM (1/4 MIC)) was 22% and the membrane permeation ([2]; AG100, 320 μM (1/2 MIC)) was 28%. The membrane permeation ([2]; AG100, 640 μM (MIC)) was 50%, the “reduction of membrane integrity” value ([2]; AG100, half MIC, 1 h) was 28% and the “MIC of EtBr in presence of the efflux inhibitor” value ([3]; inhibitor 40 μM) was 200 µg/mL. For the same molecule, the “MIC of OFX in presence of the efflux inhibitor” value ([3]; inhibitor 40 μM) was 0.125 µg/mL, the “MIC of OXA in presence of the efflux inhibitor” value ([3]; inhibitor 40 μM) was 512 µg/mL and the “MIC of TET in presence of the efflux inhibitor” value ([3]; inhibitor 40 μM) was 1 µg/mL. The “MIC of EtBr in presence of the efflux inhibitor” value ([3]; inhibitor 80 μM) was 100 µg/mL, the “MIC of OFX in presence of the efflux inhibitor” value ([3]; inhibitor 80 μM) was 0.125 µg/mL and the “MIC of OXA in presence of the efflux inhibitor” value ([3]; inhibitor 80 μM) was 512 µg/mL. The “MIC of TET in presence of the efflux inhibitor” value ([3]; inhibitor 80 μM) was 1 µg/mL, the “reduction in EtBr MIC” value ([3]; inhibitor 80 μM) was 2 fold and the “MIC of EtBr in presence of the efflux inhibitor” value ([3]; inhibitor 160 μM) was 50 µg/mL. For the same molecule, the “MIC of OFX in presence of the efflux inhibitor” value ([3]; inhibitor 160 μM) was 0.125 µg/mL, the “MIC of OXA in presence of the efflux inhibitor” value ([3]; inhibitor 160 μM) was 512 µg/mL and the “MIC of TET in presence of the efflux inhibitor” value ([3]; inhibitor 160 μM) was 1 µg/mL. For the same molecule, the “reduction in EtBr MIC” value ([3]; inhibitor 160 μM) was 4 fold, the “effect on OXA MIC” value ([3]; inhibitor 40 to 160 µM) was “no effect” and the “reduction in OFX MIC” value ([3]; inhibitor 40 to 160 µM) was 2 fold. The “reduction in TET MIC” value ([3]; inhibitor 40 to 160 µM) was 2 fold, the membrane depolarization ([4]; 80 µM) was 83% and the membrane depolarization ([4]; 160 μM (1/4 MIC)) was 85%. For the same molecule, the membrane depolarization ([4]; 320 μM (1/2 MIC)) was 89%, the membrane depolarization ([4]; 640 μM (MIC)) was 91% and the EtBr fluorescence ([5]; cycle 1) was 8.891. For the same molecule, the EtBr fluorescence ([5]; cycle 2) was 15.958, the EtBr fluorescence ([5]; cycle 3) was 24.4435 and the EtBr fluorescence ([5]; cycle 4) was 32.9586.
